Laboratory results taken from patent publication US6531510B1, “N,N′-bis(2-hydroxybenzyl)ethylenediamine-N,N′-diacetic acid in iron chelating therapy” (University of Florida Research Foundation, Inc., priority 1998, dated 2003).
Structures can show the parent of a compound that is named as a salt.

Legend:
[1] = tested on: iron-loaded Cebus apella monkeys; test: Chelator-induced iron excretion (iron-balance study) in iron-loaded Cebus apella monkeys; assay type: in vivo; settings: s.c., 150 μmoles/Kg; for efficiency of iron chelation: mean
Experimental: After intramuscular anesthesia with ketamine, an intravenous infusion was started in a leg vein. […] Two to three infusions, separated by between 10 and 14 days, were necessary to provide about 500 mg iron per Kg body weight. […] At least twenty half-lives, sixty days, passed before using any of the animals in experiments evaluating iron-chelating agents.
Seven days before the administration of the drug, the animals were placed in metabolic cages and started on a low-iron liquid diet. The monkeys were maintained on the low-iron liquid diet for the duration of the experiment. They were given food according to their body weight, and intake was very carefully monitored.
Three days prior to drug administration, day −2 to day 0, baseline iron intake and output values were measured. This same measurement was made for day +1 to day +3. The total amount of iron intake was compared with the total amount of iron excreted.
Fecal and urine samples were collected at 24 hour intervals. The collections began four days prior to the administration of the test drug and continued for an additional five days after the drug was given. Fecal samples were assayed for the presence of occult blood, weighed, and mixed with distilled deionized water prior to autoclaving for 30 minutes. The mixture was then freeze-dried, and a known portion of the powder was mixed with low-iron nitric acid and refluxed for 24 hours. Once any particulate matter in the digested samples was removed by centrifugation, iron concentrations were determined by flame atomic absorption. Monkey urine samples were acidified and reconstituted to initial volume after sterilization, if necessary.
In the primates, DFOM was administered s.c. in sterile water for injection at a dose of 150 μmoles/Kg, while HBED was first dissolved in a phosphate buffer, ph 7.4, thus forming the mono-sodium salt and given s.c. in 40% wt./vol. Cremophor RH40 at a dose of 75 or 150 μmoles/Kg. In addition, in order to more closely mimic clinical applications in patients, mono-sodium HBED was also given to the monkeys s.c. at a dose of 150 μmoles/Kg in a phosphate buffer; no Cremophor vehicle was used.
The efficiency of each chelator was calculated on the basis of a 1:1 ligand-iron complex.
Groups of monkeys (n=6 in each group) were given s.c. injections of either DFOM or MS HBED. […] In our initial experiments, HBED monohydrochloride monohydrate was dissolved in a phosphate buffer at p.7.2 to form a solution of the MS HBED and administered in 40% wt./vol. […] HBED monohydrochloride monohydrate-Cremophor was administered by s.c. injection at doses of 75 or 150 μmoles/Kg.

[2] = tested on: Cebus apella monkeys with iron overload; settings: cited from earlier work
human patients = settings: oral; cited from earlier work
Water solubility = assay type: physicochemical
[3] = typical, background statement; cited from earlier work

## O=C([O-])CN(CCN(CC(=O)O)Cc1ccccc1O)Cc1ccccc1O.[Na+] [MS HBED, HBED, monosodium salt]
[1]; P>0.2
  mean net iron excretion, phosphate buffer vs Cremophor preparation: no significant difference
[1]; phosphate buffer
  share of chelator-induced iron excretion in the stool: about 92%
  share of chelator-induced iron excretion in the urine: about 8%
  efficiency of iron chelation: 10.7±2.3%
[1]; phosphate buffer vs DFOM s.c. 150 μmoles/Kg, P<0.001
  iron excretion relative to DFOM: about twice
[1]; phosphate buffer, no Cremophor
  chelator-induced iron excretion: 899±193 μg Fe/Kg body weight

## O=C(O)CN(CCN(CC(=O)O)Cc1ccccc1O)Cc1ccccc1O [HBED, N,N′-bis(2-hydroxybenzyl)ethylenediamine-N,N′-diacetic acid]
[2]; oral, phosphate buffer, previously published study
  chelator-induced iron excretion: 50±44 μg Fe/Kg body weight
[2]; oral, phosphate buffer
  share of chelator-induced iron excretion in the stool: about 56%
  share of chelator-induced iron excretion in the urine: about 44%
[2]; oral, phosphate buffer, mean
  efficiency of iron chelation: 0.5±0.5%
Human patients
  level of iron excretion for treatment of iron overload: ineffective

## Cl.O.O=C(O)CN(CCN(CC(=O)O)Cc1ccccc1O)Cc1ccccc1O [HBED monohydrochloride monohydrate]
Water solubility
  water solubility: low water solubility

## CC(=O)N(O)CCCCCNC(=O)CCC(=O)N(O)CCCCCNC(=O)CCC(=O)N(O)CCCCCN [DFOM, desferrioxamine B mesylate]
[3]
  share of the compound administered that binds iron: ≤ 5%
[2]; DFOM subcutaneous vs HBED or dimethyl ester oral
  activity in the Cebus apella monkey screen compared with oral HBED or its dimethyl ester: significantly higher activity
[1]; aqueous solution
  share of chelator-induced iron excretion in the stool: about 65%
  share of chelator-induced iron excretion in the urine: about 35%
  efficiency of iron chelation: 5.1±1.3%
[1]; aqueous solution, n=6
  chelator-induced iron excretion: 435±115 μg Fe/Kg body weight
